System: Ba/F3 EGFR del19/T790M/C797S cells
Assay: Ba/F3 EGFR del19/T790M/C797S cell growth inhibition test (CellTiter-Glo, 72 hours);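 note: compounds tested in tenfold steps from 10 µM down to 0.1 nM, with luminescence read on a microplate reader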
Assay type: cell-based
Settings: Ba/F3 cell line overexpressing EGFR del19/T790M/C797S, 72 hours, CellTiter-Glo; read-out: Ba/F3 EGFR del19/T790M/C797S cells, GI50
Procedure: Specifically, the cell line stored in a liquid nitrogen tank was taken out, rapidly dissolved at 37° C., and thereafter centrifuged to remove the cryopreservation medium. The recovered cell pellets were well mixed in a culture medium, put into a culture flask, and passaged under conditions of 37° C. and 5% carbon dioxide to stabilize the cells to the logarithmic growth phase. Thereafter, cells were taken from the flask, centrifuged to remove the culture medium, washed with Dulbecco's phosphate buffered saline (DPBS), and then centrifuged again to remove DPBS, and then diluted with a culture medium to have 1×10^5 cells/ml. The diluted cells were dispensed into a 96-well plate at 100 μl per well. […] The DMSO solution containing each compound was diluted with a culture medium to a concentration of 30 μM, and then tenfold serial dilution was used to prepare a solution diluted upto 0.3 nM (in order to reach a final DMSO concentration of 1% or less).
50 μl of a test solution of each compound was added each time to the 96-well plate in which the cells were dispensed, thus reaching a final concentration of 10 μM to 0.1 nM in 150 μl per well. The cells treated with the test solution were cultured under conditions of 37° C. and 5% carbon dioxide for 72 hours. After the 96-well plate in which the cells were cultured was acclimated to room temperature for 30 minutes, CellTiter-Glo® Luminescent Cell Assay Reagent (CTG, Promega) was dispensed at 50 μl per well. After stabilizing luminescence signals for 10 minutes, the luminescence intensity was measured with a microplate reader.
The GI50 value of each compound was calculated using nonlinear regression of GraphPad Prism; log[inhibitor] vs. normalized response analysis.

| Compound | GI50 [nM] |
| --- | --- |
| CN1CCN(c2ccc(Nc3nc(Nc4ccccc4N(C)S(C)(=O)=O)c4cc[nH]c4n3)cc2)CC1 [Example 1, N-methyl-N-(2-((2-((4-(4-methylpiperazin-1-yl)phenyl)amino)-7H-pyrrolo[2,3-d]pyrimidine-4-yl)amino)phenyl)methanesulfonamide] | 3.1 |
| Cc1cc(N2CCN(C)CC2)ccc1Nc1nc(Nc2ccccc2N(C)S(C)(=O)=O)c2cc[nH]c2n1 [Example 2, N-methyl-N-(2-((2-((2-methyl-4-(4-methylpiperazin-1-yl)phenyl)amino)-7H-pyrrolo[2,3-d]pyrimidine-4-yl)amino)phenyl)methanesulfonamide] | 522 |
| CN1CCN(c2ccc(Nc3nc(Nc4ccccc4N(C)S(C)(=O)=O)c4cc[nH]c4n3)c(F)c2)CC1 [Example 3, N-(2-((2-((2-fluoro-4-(4-methylpiperazin-1-yl)phenyl)amino)-7H-pyrrolo[2,3-d]pyrimidine-4-yl)amino)phenyl)-N-methylmethanesulfonamide] | 157 |
| CN1CCN(c2ccc(Nc3nc(Nc4ccccc4N(C)S(C)(=O)=O)c4cc[nH]c4n3)cc2O)CC1 [Example 4, N-(2-((2-((3-hydroxy-4-(4-methylpiperazin-1-yl)phenyl)amino)-7H-pyrrolo[2,3-d]pyrimidine-4-yl)amino)phenyl)-N-methylmethanesulfonamide] | 453 |
| Cc1cc(Nc2nc(Nc3ccccc3N(C)S(C)(=O)=O)c3cc[nH]c3n2)ccc1N1CCN(C)CC1 [Example 5, N-methyl-N-(2-((2-((3-methyl-4-(4-methylpiperazin-1-yl)phenyl)amino)-7H-pyrrolo[2,3-d]pyrimidine-4-yl)amino)phenyl)methanesulfonamide] | 31 |
| CN1CCN(c2ccc(Nc3nc(Nc4ccccc4N(C)S(C)(=O)=O)c4cc[nH]c4n3)cc2Cl)CC1 [Example 6, N-(2-((2-((3-chloro-4-(4-methylpiperazin-1-yl)phenyl)amino)-7H-pyrrolo[2,3-d]pyrimidine-4-yl)amino)phenyl)-N-methylmethanesulfonamide] | 54 |

Continued, values first:

| GI50 [nM] | Compound |
| --- | --- |
| 19 | CN1CCN(c2ccc(Nc3nc(Nc4ccccc4N(C)S(C)(=O)=O)c4cc[nH]c4n3)cc2F)CC1 [Example 7, N-(2-((2-((3-fluoro-4-(4-methylpiperazin-1-yl)phenyl)amino)-7H-pyrrolo[2,3-d]pyrimidine-4-yl)amino)phenyl)-N-methylmethanesulfonamide] |
| 4.2 | CN(c1ccccc1Nc1nc(Nc2ccc(N3CCOCC3)c(F)c2)nc2[nH]ccc12)S(C)(=O)=O [Example 12, N-(2-((2-((3-fluoro-4-morpholinophenyl)amino)-7H-pyrrolo[2,3-d]pyrimidine-4-yl)amino)phenyl)-N-methylmethanesulfonamide] |
| 73 | CN(c1ccccc1Nc1nc(Nc2ccc(N3CCC(N4CCOCC4)CC3)c(F)c2)nc2[nH]ccc12)S(C)(=O)=O [Example 18, N-(2-((2-((3-fluoro-4-(4-morpholinopiperidin-1-yl)phenyl)amino)-7H-pyrrolo[2,3-d]pyrimidine-4-yl)amino)phenyl)-N-methylmethanesulfonamide] |
| 112 | CN(c1ccccc1Nc1nc(Nc2ccc(N3CCN(C4COC4)CC3)c(F)c2)nc2[nH]ccc12)S(C)(=O)=O [Example 19] |
| 37 | CN1CCC(c2ccc(Nc3nc(Nc4ccccc4N(C)S(C)(=O)=O)c4cc[nH]c4n3)cc2F)CC1 [Example 20, N-(2-((2-((3-fluoro-4-(1-methylpiperidin-4-yl)phenyl)amino)-7H-pyrrolo[2,3-d]pyrimidine-4-yl)amino)phenyl)-N-methylmethanesulfonamide] |
| 17 | CN(C)C1CCN(c2ccc(Nc3nc(Nc4ccccc4N(C)S(C)(=O)=O)c4cc[nH]c4n3)cc2F)CC1 [Example 21, N-(2-((2-((4-(4-(dimethylamino)piperidin-1-yl)-3-fluorophenyl)amino)-7H-pyrrolo[2,3-d]pyrimidine-4-yl)amino)phenyl)-N-methylmethanesulfonamide] |
